Experimental data: paper PMC7144022, “Quinolinecarboxamides Inhibit the Replication of the Bovine Viral Diarrhea Virus by Targeting a Hot Spot for the Inhibition of Pestivirus Replication in the RNA-Dependent RNA Polymerase” (Molecules, 2020)

Experiments:
[1] = target: T1, BVDV (NADL) RNA-dependent RNA polymerase (RdRp) (Bovine viral diarrhea virus, UniProt P19711); experiment: RNA-dependent RNA polymerase assay, poly(C) template; type: biochemical; details: purified RdRp, read-out: 50% inhibitory concentration for the BVDV polymerase activity
T1 construct: BVDV (NADL) RNA-dependent RNA polymerase (RdRp) was expressed and purified; made in house
Experimental: BVDV (NADL) RNA-dependent RNA polymerase (RdRp) was expressed and purified, as described before. […] In brief, the purified BVDV polymerase (100 nM) was mixed with 100 µM GTP (containing 8.3 µM of [^3H]GTP, Perkin Elmer) and increasing concentration of the inhibitor (0.2 µM, 0.7 µM, 2 µM, 6 µM, 19 µM, 56 µM, 165 µM or 500 µM) in 50 mM Hepes pH 8.0, 10 mM KCl, 10 mM DTT, 1 mM MgCl2, 2mM MnCl2, and 0.5% igepal (Sigma). The enzyme mix and inhibitors were pre-incubated, in order to favor enzyme-inhibitor interactions before RNA binding. Reactions were started by the addition of 100 nM of poly(C) (about 500 nt in size) template. Reactions were incubated at 30 °C and stopped by addition of 50 mM EDTA. Samples were transferred onto DE-81 filters, washed with 0.3 M ammonium formate solution, and dried. Radioactivity bound to the filter was determined by liquid scintillation counting.

[2] = target: T1, BVDV (NADL) RNA-dependent RNA polymerase (RdRp); details: reference compounds; cited from earlier work
[3] = Cytotoxicity assay, proliferation of exponentially growing MDBK cells (MTS/PMS); type: cell-based, bovine; details: bovine
Experimental: Assays were carried out, as described previously.

BVDV NADL virus = experiment: CPE-based antiviral assay, BVDV NADL in MDBK cells (MTS/PMS); details: for EC50: Bovine viral diarrhea virus isolates and strains, MDBK, 72 h; for S.I.: selectivity index, CC50 vs EC50
[4] = sheet CSFCI#, potency relative to TO505-6180 (EC50 0.07 µM)
[5] = sheet CSFCII#, potency relative to TO502-2403 (EC50 0.2 µM)

T1 sequence (P19711 3270-3988): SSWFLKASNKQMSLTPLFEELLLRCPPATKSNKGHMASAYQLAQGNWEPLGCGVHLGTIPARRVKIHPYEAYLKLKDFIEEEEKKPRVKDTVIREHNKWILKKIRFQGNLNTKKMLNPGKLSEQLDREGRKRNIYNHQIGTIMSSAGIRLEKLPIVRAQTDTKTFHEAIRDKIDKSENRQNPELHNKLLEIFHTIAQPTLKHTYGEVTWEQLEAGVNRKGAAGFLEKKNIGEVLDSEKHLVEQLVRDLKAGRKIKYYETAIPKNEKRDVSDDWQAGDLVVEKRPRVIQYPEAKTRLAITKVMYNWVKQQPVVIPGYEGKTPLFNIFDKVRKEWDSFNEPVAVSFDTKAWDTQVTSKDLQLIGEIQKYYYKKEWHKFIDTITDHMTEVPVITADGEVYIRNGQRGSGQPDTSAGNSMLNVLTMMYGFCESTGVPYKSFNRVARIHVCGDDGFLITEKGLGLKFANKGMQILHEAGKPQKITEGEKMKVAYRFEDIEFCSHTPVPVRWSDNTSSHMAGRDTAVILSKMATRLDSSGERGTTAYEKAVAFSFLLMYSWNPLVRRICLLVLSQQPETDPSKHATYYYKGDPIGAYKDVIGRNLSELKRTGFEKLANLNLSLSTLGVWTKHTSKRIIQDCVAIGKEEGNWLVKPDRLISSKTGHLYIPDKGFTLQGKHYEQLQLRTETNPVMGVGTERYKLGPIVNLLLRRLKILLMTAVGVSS

SMILES | IC50 [1] | inhibitory effect on the highly purified BVDV RdRp [2] | CC50 at 5 days [3] | EC50 (BVDV NADL virus) | S.I. (BVDV NADL virus) | fold increase (BVDV NADL virus; [4]) | fold increase (BVDV NADL virus; [5])
Nc1nc2c(ncn2[C@@H]2O[C@H](COP(=O)(O)OP(=O)(O)OP(=O)(O)O)C[C@H]2O)c(=O)[nH]1 [3′-dGTP, 3′-deoxyguanosine-5’-triphosphate, reference compound] | < 1 µM |  |  |  |  |  | 
CCOC(=O)c1cc2ccn3c(c-2n1)N=C(C)C3 [AG110, ethyl 2-methylimidazo[1,2-a]pyrrolo[2,3-c]pyridin-8-carboxylate] |  | none of these compounds had any inhibitory effect |  |  |  |  | 
Brc1ccc(Cn2ccc3nc(-c4ccccc4)nc-3c2)cc1 [BPIP, 5-[(4-bromophenyl)methyl]-2-phenyl-5H-imidazo[4,5-c]pyridine] |  | none of these compounds had any inhibitory effect |  |  |  |  | 
COc1cccc(NC(=O)c2cc(-c3ccccc3)nc3ccccc23)c1 [CSFC-138, COc1cccc(c1)NC(=O)c1cc(nc2ccccc12)c1ccccc1] |  |  | > 100 µM | > 100 µM | 1 | 0.0007 | 
COc1ccc(NC(=O)c2cc(-c3ccccc3)nc3ccccc23)cc1 [CSFC-139, COc1ccc(cc1)NC(=O)c1cc(nc2ccccc12)c1ccccc1] |  |  | > 100 µM | > 100 µM | 1 | 0.0007 | 
Cc1ccc(-n2ccc(NC(=O)c3cc(-c4cccnc4)nc4ccccc34)n2)cc1 [CSFC-140, Cc1ccc(cc1)n2ccc(n2)NC(=O)c4cc(nc3ccccc34)c5cccnc5] |  |  | 16 µM | 0.02 µM |  |  | 10.00
Cc1ccc(-n2ccc(NC(=O)c3cc(-c4ccccc4)nc4ccccc34)n2)cc1 [CSFC-141, Cc1ccc(cc1)n2ccc(n2)NC(=O)c4cc(nc3ccccc34)c5ccccc5] |  |  | > 100 µM | 0.6 µM | 167 |  | 0.33
Cc1ccccc1-n1ccc(NC(=O)c2cc(-c3ccccc3)nc3ccccc23)n1 [CSFC-142, Cc1ccccc1n2ccc(n2)NC(=O)c4cc(nc3ccccc34)c5ccccc5] |  |  | 23 µM | 2.3 µM | 10 |  | 0.09
O=C(Nc1ccn(-c2ccccc2)n1)c1cc(-c2cccc3ccccc23)nc2ccccc12 [CSFC-143, O=C(c2cc(nc1ccccc12)c4cccc3ccccc34)Nc5ccn(n5)c6ccccc6] |  |  | > 100 µM | 0.1 µM | 1000 |  | 2.00
O=C(Nc1ccn(-c2cc(F)cc(F)c2)n1)c1cc(-c2ccccc2)nc2ccccc12 [CSFC-144, Fc1cc(F)cc(c1)n2ccc(n2)NC(=O)c4cc(nc3ccccc34)c5ccccc5] |  |  | > 100 µM | 0.02 µM |  |  | 10.00
Cc1ccc2sc(NC(=O)c3cc(-c4ccccc4)nc4ccccc34)nc2c1C [CSFC-145, Cc1c(C)ccc2sc(nc12)NC(=O)c1cc(nc2ccccc21)c1ccccc1] |  |  | > 100 µM | < 0.02 µM |  |  | 
